“And” between values parts separate entries of the source, which are not always exact repeats. Identical values can stand only once.
Tested on: C. difficile ATCC BAA-1870
Assay: MIC of active hits by broth microdilution
Conditions: C. difficile ATCC BAA-1870, 48 h anaerobic; for MIC: Clostridioides difficile, ATCCBAA1870, 48 h

Row | Compound | MIC (μM) [µM] | MIC (μg/mL) [µg/mL] | MIC
1 | Ivermectin | 16 | 14 | –
2 | Avermectin B1 | 16 | 27.71 | –
3 | Cc1cc(SCc2sc(-c3ccc(C(F)(F)F)cc3)nc2C)ccc1OCC(=O)O [GW 501516] | – | – | 16 µM and 14.5 µg/mL
4 | CC(C)=CCC[C@](C)(O[C@@H]1O[C@H](CO)[C@@H](O)[C@H](O)[C@H]1O)[C@H]1CC[C@]2(C)[C@@H]1[C@H](O)C[C@@H]1[C@@]3(C)CC[C@H](O)C(C)(C)[C@@H]3CC[C@]12C [Ginsenoside C-K] | – | – | 16 µM and 9.97 µg/mL

Reference: paper PMC11288027, “Exploring novel microbial metabolites and drugs for inhibiting Clostridioides difficile” (mSphere, 2024)
